Measurements published in ChEMBL document CHEMBL5316306 (J Med Chem, 2023).
The source made the active and inactive calls. No cut-off for these calls is given here.

Experiments:
[1] = biological target: T1, Proteasome Macropain subunit MB1 (Homo sapiens, UniProt P28074); experiment: Inhibition of human 20s constitutive proteasome beta-5c
T1 sequence (P28074 whole entry): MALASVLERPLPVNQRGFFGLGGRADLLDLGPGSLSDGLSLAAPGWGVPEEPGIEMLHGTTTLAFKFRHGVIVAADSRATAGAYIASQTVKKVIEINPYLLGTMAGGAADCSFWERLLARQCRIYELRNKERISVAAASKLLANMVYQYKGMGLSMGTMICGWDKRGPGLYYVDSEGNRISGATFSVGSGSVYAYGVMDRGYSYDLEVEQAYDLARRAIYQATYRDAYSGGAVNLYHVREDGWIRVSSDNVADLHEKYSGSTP

[2] = biological target: T2, Proteasome subunit beta type-8 (Homo sapiens, UniProt P28062); experiment: Inhibition of human 20s immunoproteasome beta-5i subunit
T2 sequence (P28062 whole entry): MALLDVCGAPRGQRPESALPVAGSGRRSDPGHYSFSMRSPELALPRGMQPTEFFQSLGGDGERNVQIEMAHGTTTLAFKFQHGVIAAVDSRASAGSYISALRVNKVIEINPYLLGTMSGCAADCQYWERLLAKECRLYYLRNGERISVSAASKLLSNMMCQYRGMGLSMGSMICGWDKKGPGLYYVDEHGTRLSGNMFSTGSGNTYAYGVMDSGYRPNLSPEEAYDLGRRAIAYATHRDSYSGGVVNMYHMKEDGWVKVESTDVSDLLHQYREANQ

[3] = biological target: T2, Proteasome subunit beta type-8; experiment: Inhibition of 20s immunoproteasome beta-5i subunit (unknown origin)
[4] = biological target: T1, Proteasome Macropain subunit MB1; experiment: Inhibition of 20s constitutive proteasome beta-5c (unknown origin)
[5] = biological target: T3, Proteasome Macropain subunit MB1 (Homo sapiens) (UniProt P28074); experiment: Inhibition of 20s constitutive proteasome beta-5c (unknown origin) assessed as recovery half life time
T3 sequence (whole entry): T1 sequence (P28074 whole entry)

[6] = biological target: T3, Proteasome Macropain subunit MB1 (Homo sapiens); experiment: Time dependent inhibition of human 20s constitutive proteasome beta-5c assessed as restoration of enzyme activity at 10 nM using suc-LLVY-AMC as substrate; conditions: time <= 90.0 min, TDE = time-dependent effect
[7] = test system: HepG2; experiment: Cytotoxicity against human HepG2 cells after 72 hrs by celltitre-glo assay; type: functional, cell-based; conditions: HepG2, 72 h
[8] = test system: MM1.S; experiment: Cytotoxicity against human MM1.S cells after 72 hrs by celltitre-glo assay; type: functional, cell-based
[9] = test system: RPMI-8226; experiment: Cytotoxicity against human RPMI-8226 cells after 72 hrs by celltitre-glo assay; type: functional, cell-based; conditions: RPMI-8226, 72 h
[10] = biological target: T4, Proteasome subunit beta type-8 (Homo sapiens) (UniProt P28062); conditions: dose 250.0 nM, time <= 90.0 min
T4 sequence (whole entry): T2 sequence (P28062 whole entry)

[11] = test system: PBMC; experiment: Cytotoxicity against human PBMC cells expressing 20s immunoproteasome beta-5i after 72 hrs by celltitre-glo assay; type: functional, cell-based
[12] = biological target: T5, Proteasome subunit beta type-9 (Homo sapiens, UniProt P28065); experiment: Inhibition of human 20s immunoproteasome beta-1i subunit
T5 sequence (P28065 whole entry): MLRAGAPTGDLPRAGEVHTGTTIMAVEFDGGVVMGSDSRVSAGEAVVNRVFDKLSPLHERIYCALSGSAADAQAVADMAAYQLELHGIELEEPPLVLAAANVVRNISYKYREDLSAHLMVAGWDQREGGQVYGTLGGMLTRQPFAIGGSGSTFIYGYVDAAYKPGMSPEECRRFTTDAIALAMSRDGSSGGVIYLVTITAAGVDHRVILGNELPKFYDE

[13] = biological target: T6, Proteasome subunit beta type-10 (Homo sapiens, UniProt P40306); experiment: Inhibition of human 20s immunoproteasome beta-2i subunit
T6 sequence (P40306 whole entry): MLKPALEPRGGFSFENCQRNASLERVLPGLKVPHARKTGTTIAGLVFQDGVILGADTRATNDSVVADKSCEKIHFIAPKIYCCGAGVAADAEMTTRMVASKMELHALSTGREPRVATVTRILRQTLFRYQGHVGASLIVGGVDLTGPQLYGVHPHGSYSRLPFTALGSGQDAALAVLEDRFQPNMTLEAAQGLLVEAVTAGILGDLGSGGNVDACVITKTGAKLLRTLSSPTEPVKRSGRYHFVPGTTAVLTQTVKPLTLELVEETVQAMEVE

[14] = biological target: T3, Proteasome Macropain subunit MB1 (Homo sapiens); experiment: Inhibition of human 20s constitutive proteasome beta-5c assessed as restoration of enzyme activity at 2 nM incubated for 1 hr followed by compound removal by dialysis measured after 1 hr
[15] = biological target: T3, Proteasome Macropain subunit MB1 (Homo sapiens); experiment: Time dependent inhibition of human 20s constitutive proteasome beta-5c assessed as restoration of enzyme activity at 10 nM using suc-LLVY-AMC as substrate incubated upto 90 mins
[16] = biological target: T4, Proteasome subunit beta type-8 (Homo sapiens); experiment: Time dependent inhibition of human 20s immunoproteasome beta-5i subunit assessed as restoration of enzyme activity at 250 nM using Ac-ANW-AMC as substrate incubated upto 90 mins
[17] = biological target: Procathepsin L (Homo sapiens) (UniProt P07711); experiment: Inhibition of human cathepsin L at 100 uM
[18] = biological target: Trypsin (Homo sapiens) (UniProt P07477+P07478+P35030); experiment: Inhibition of human trypsin at 33.3 uM; type: protein assay
[19] = biological target: Chymotrypsin (Homo sapiens) (UniProt Q99895+P17538+P40313+Q6GPI1); experiment: Inhibition of human chymotrypsin at 11.1 uM; type: protein assay
[20] = biological target: T3, Proteasome Macropain subunit MB1 (Homo sapiens); experiment: Inhibition of 20s constitutive proteasome beta-5c in human HepG2 cells incubated by proteasome glo assay kit analysis; type: cell-based; conditions: time <= 1.0 hrs
[21] = biological target: T4, Proteasome subunit beta type-8 (Homo sapiens); experiment: Inhibition of 20s immunoproteasome beta-5i in human PBMC cells incubated by proteasome glo assay kit analysis; type: cell-based; conditions: time <= 1.0 hrs
[22] = test system: MM1.S; experiment: Synergistic cytotoxic activity against human MM1.S cells after 72 hrs in presence of 0.02 uM of (S)-N5-(tert-butyl)-N1-((S)-1-(((4-fluoronaphthalen-1-yl)methyl)amino)-3-methoxy-1-oxopropan-2-yl)-2-((4-methylphenyl)sulfonamido)pentanediamide by celltitre-glo assay; type: functional, cell-based
[23] = test system: RPMI-8226; experiment: Synergistic cytotoxic activity against human RPMI-8226 cells after 72 hrs in presence of 0.25 uM of (S)-N5-(tert-butyl)-N1-((S)-1-(((4-fluoronaphthalen-1-yl)methyl)amino)-3-methoxy-1-oxopropan-2-yl)-2-((4-methylphenyl)sulfonamido)pentanediamide by celltitre-glo assay; type: functional, cell-based; conditions: RPMI-8226, 72 h

Sequence of Procathepsin L (Homo sapiens) (P07711 114-333 limits assumed): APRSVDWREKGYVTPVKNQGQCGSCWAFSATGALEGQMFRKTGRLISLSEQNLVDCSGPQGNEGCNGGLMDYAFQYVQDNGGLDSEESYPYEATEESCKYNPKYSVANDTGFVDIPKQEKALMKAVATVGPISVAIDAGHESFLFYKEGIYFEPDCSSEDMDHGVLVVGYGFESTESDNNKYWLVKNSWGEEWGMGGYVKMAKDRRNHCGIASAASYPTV

Compound | IC50 [1] [µM] | IC50 [2] [µM] | other results
Cc1ccc(S(=O)(=O)N[C@@H](CC(=O)NC(C)(C)C)C(=O)NCc2cccs2)cc1 | > 100 | > 100 | 
Cc1ccc(S(=O)(=O)N[C@@H](CC(=O)NC(C)(C)C)C(=O)NCc2ccccc2)cc1 | > 100 | > 100 | 
CC(C)(C)NC(=O)C[C@H](NC(=O)c1cc(Cl)ccc1Cl)C(=O)NCc1cccc(B(O)O)c1 | 1.4 | 57.7 | 
Cc1cc(C(=O)N[C@@H](CC(=O)NC(C)(C)C)C(=O)NCc2cccc(B(O)O)c2)no1 | 5.9 | > 100 | 
CC(C)(C)NC(=O)C[C@H](NC(=O)CN1CCOCC1)C(=O)NCc1cccc(B(O)O)c1 | > 100 | > 100 | 
CC(C)C[C@H](NC(=O)CN1CCOCC1)C(=O)N[C@@H](C[C@H]1CC[C@H](C2CCCCC2)CC1)C(=O)N[C@@H](Cc1ccccc1)C(=O)N[C@@H](C)C(=O)[C@@]1(C)CO1 |  |  | IC50 [3]: 22.8 µM
CC(C)(C)NC(=O)C[C@H](NC(=O)Cc1c[nH]c2ccccc12)C(=O)NCc1cccc(B(O)O)c1 | 0.7 | 69.2 | 
Cc1ncc(C(=O)N[C@@H](CC(=O)NC(C)(C)C)C(=O)NCc2cccc(B(O)O)c2)s1 | > 100 | > 100 | 
CC(C)(C)NC(=O)C[C@H](NC(=O)c1cnccn1)C(=O)NCc1cccc(B(O)O)c1 | > 100 | > 100 | 
COC[C@H](NC(=O)C(=O)c1c[nH]c2ccccc12)C(=O)NCc1cccc(B(O)O)c1 | 3 | 45.2 | 
Cc1ccc(S(=O)(=O)N[C@@H](CC(=O)NC(C)(C)C)C(=O)Nc2cccc(B(O)O)c2)cc1 | > 100 | > 100 | 
Cc1ccc(S(=O)(=O)N[C@@H](CC(=O)NC(C)(C)C)C(=O)NCc2cccc(C(=O)O)c2)cc1 | > 100 | > 100 | 
COC[C@H](NC(=O)c1cc(C)on1)C(=O)N[C@@H](COC)C(=O)N[C@@H](CC(C)C)C(=O)[C@@]1(C)CO1 |  |  | IC50 [4]: 0.02 µM; IC50 [3]: 0.3 µM
CC(C)C[C@H](NC(=O)[C@H](Cc1ccccc1)NC(=O)c1cnccn1)B(O)O [BORTEZOMIB] |  |  | TIME [5]: 1.83 h; TDI [6]: Tde; EC50 [7]: 0.013 µM; EC50 [8]: 0.002 µM; EC50 [9]: 0.004 µM; TDI [10]: Tde
Cc1ccc(S(=O)(=O)N[C@@H](CC(=O)NC(C)(C)C)C(=O)NCc2ccc(B(O)O)o2)cc1 | 2.6 | 57.2 | 
CCCc1ccc(OCC(=O)N(Cc2nc(-c3cccnc3)no2)C(C)C)cc1 | 0.005 | > 100 | IC50 [4]: 0.027 µM; IC50 [3]: 2.17 µM

Compound | IC50 [1] [µM] | IC50 [2] [µM] | other results
Cc1ccc(S(=O)(=O)N[C@@H](CC(=O)NC(C)(C)C)C(=O)NCc2cccc(C(F)(F)F)c2)cc1 | > 100 | > 100 | 
CC(C)(C)NC(=O)C[C@H](NC(=O)C(=O)c1c[nH]c2ccccc12)C(=O)NCc1cccc(B(O)O)c1 | 0.01 | 7.1 | EC50 [11]: > 50 µM; IC50 [12]: > 33.3 µM; IC50 [13]: > 33.3 µM; inhibition [14]: inactive; TDI [15]: inactive; TDI [16]: inactive; inhibition [17]: inactive; inhibition [18]: inactive; inhibition [19]: inactive; inhibition [20]: Dose-Dependent Effect; inhibition [21]: Dose-Dependent Effect; EC50 [7]: 3.2 µM; EC50 [8]: 0.057 µM; EC50 [9]: 1.67 µM; EC50 [22]: 0.01 µM; EC50 [23]: 0.173 µM
Cc1ccc(S(=O)(=O)N[C@@H](CC(=O)NC(C)(C)C)C(=O)NCc2ccco2)cc1 | > 100 | > 100 | 
Cc1ccc(S(=O)(=O)N[C@@H](CC(=O)NC(C)(C)C)C(=O)NCc2cccc(O)c2)cc1 | > 100 | > 100 | 
Cc1ccc(S(=O)(=O)N[C@@H](CC(=O)NC(C)(C)C)C(=O)NCc2ccc(B(O)O)cc2)cc1 | > 100 | > 100 | 
CC(C)(C)NC(=O)C[C@H](NC(=O)c1cc(-c2ccccc2)ccn1)C(=O)NCc1cccc(B(O)O)c1 | 3.8 | 22.8 | 
CC(C)(C)NC(=O)C[C@H](NC(=O)c1ccccc1)C(=O)NCc1cccc(B(O)O)c1 | 3.8 | > 100 | 
CC(C)(C)NC(=O)C[C@H](NC(=O)C(=O)c1ccccc1)C(=O)NCc1cccc(B(O)O)c1 | 0.24 | > 100 | 
Cc1ccc(S(=O)(=O)N[C@@H](CC(=O)NC(C)(C)C)C(=O)NCc2cccc(B(O)O)c2)cc1 | 0.21 | > 100 | 
CC(C)(C)NC(=O)C[C@H](NC(=O)CCc1ccc(F)cc1)C(=O)NCc1cccc(B(O)O)c1 | 0.75 | 47.9 | 
Cc1ccc(S(=O)(=O)N[C@@H](CC(=O)NC(C)(C)C)C(=O)Nc2ccc(B(O)O)cc2)cc1 | > 100 | > 100 | 
Cc1ccc(S(=O)(=O)N[C@@H](CC(=O)NC(C)(C)C)C(=O)NCc2cccc(F)c2)cc1 | > 100 | > 100 | 
COc1ccc(Cc2noc(CN(C(=O)COc3ccc(Br)cc3)C(C)C)n2)cc1OC |  |  | IC50 [4]: 0.037 µM
Cc1ccc(S(=O)(=O)N[C@@H](CC(=O)NC(C)(C)C)C(=O)NCc2ccc(B(O)O)s2)cc1 | > 100 | > 100 | 
CC(C)(C)NC(=O)C[C@H](NC(=O)C(=O)C1CC1)C(=O)NCc1cccc(B(O)O)c1 | 24.1 | > 100 | 
CC(C)(C)NC(=O)CC[C@H](NC(=O)C(=O)c1c[nH]c2ccccc12)C(=O)NCc1cccc(B(O)O)c1 | 0.085 | 11.3 | IC50 [12]: > 33.3 µM; IC50 [13]: > 33.3 µM; EC50 [7]: 49.1 µM; EC50 [8]: 0.76 µM; EC50 [9]: 15 µM
